Measurements reported in paper PMC12030627, “Radioiodinated Bicyclic RGD Peptide Derivatives for Enhanced Tumor Accumulation” (Pharmaceuticals, 2025).
Like-named read-outs stand apart in the source and are kept apart here.

Tests used:
[1] = Biodistribution in A549 and U-87 MG co-implantation mice; format: in vivo, BALB/c nu-nu mice; conditions: male, BALB/c nu-nu, mouse, iv, 37 kBq, total radioactivity, U-87 MG and A549 co-implanted mice, mean ± SD, n = 4
Procedure: (§1) Animal experiments were performed in compliance with institutional animal care regulations, with the study protocol approved by the Experimental Animal Committee of Osaka Medical and Pharmaceutical University (Approval Numbers: 21–76, 22–76, and 23–76). Four-week-old male BALB/c nu-nu mice (Japan SLC, Shizuoka, Japan) were housed under a 12 h light/12 h dark cycle with free access to food and water. Tumor-bearing mice were established by suspending U-87 MG cells (2 × 10^6 cells/mouse) in PBS(–) and subcutaneously injecting 100 μL of the suspension into the right hind leg. For co-implantation models, A549 cells (2 × 10^6 cells/mouse) were suspended in PBS(–) and inoculated (100 μL) into the left hind leg of the same mice already inoculated with U-87 MG cells. Mice with tumor size approximately 10 mm in diameter, 4–5 weeks after inoculation, were used for biodistribution studies. Animals in which either tumor was not viable were excluded from the experiment.
(§2) U-87 MG-bearing mice (n = 42, 8–9 weeks old; 22–27 g) were randomly assigned into groups and administered [^125I]bcRGDpal or [^125I]bcRGDiba via intravenous injection (37 kBq in 100 μL of PBS containing 0.1% Tween 80 (PBS-T80)). At 5 min, 30 min, 1 h, 2 h, 6 h, 12 h, or 24 h post-injection, the mice were euthanized (n = 3 per time point). The heart, kidneys, liver, brain, pancreas, spleen, lung, small intestine, large intestine, muscle, skin, stomach, bone, and tumors were excised. Each organ’s weight and radioactivity were measured by a NaI well-type scintillation counter, and the % ID/g was calculated. To investigate the correlation between integrin expression and radioactivity accumulation, biodistribution at 2 h after administration of [^125I]bcRGDpal or [^125I]bcRGDiba was assessed in A549 and U-87 MG co-implantation mice (n = 5) using the same procedure. Additionally, co-implantation mice were injected with [^125I]bcRGDdimer (37 kBq/100 μL PBS-T80) and euthanized at 30 min, 2 h, and 4 h post-injection (n = 4 per time point), and % ID/g values were calculated as described above. The minimum sample size needed for the biodistribution study in U-87 MG-bearing mice was calculated using G Power software version 3.1.9.7. The calculation was based on a two-tailed test, with an effect size of 3.9, a significance level (α) of 0.05, and a statistical power (1 − β) of 0.8. […] The minimum required sample size for the biodistribution study in A549 and U-87 MG co-implantation mice was also calculated to be four animals per group (effect size = 2.5, α = 0.05, 1 − β = 0.8). To guarantee objective results, the experiment was carried out in a blinded manner. Specifically, drug administration and radioactivity measurements were conducted by different investigators to eliminate potential bias.

[2] = test system: A549 and U-87 MG co-implantation mice; experiment: as above; format: in vivo, BALB/c nu-nu mice
Procedure: as §1, §2

[3] = 30 min after i.v. administration, U-87 MG and A549 co-implanted mice, mean ± SD, n = 4
[4] = 2 h after i.v. administration, U-87 MG and A549 co-implanted mice, mean ± SD, n = 4
[5] = 4 h after i.v. administration, U-87 MG and A549 co-implanted mice, mean ± SD, n = 4

tissue uptake at 0.5 h ([1]; A549 tumor, 30 min after i.v. administration, read-out: Radioactivity in A549 tumor): 1.7 ± 0.6 %ID/g
tissue uptake at 2 h ([1]; A549 tumor, 2 h after i.v. administration, read-out: Radioactivity in A549 tumor): 0.8 ± 0.2 %ID/g
tissue uptake at 4 h ([1]; A549 tumor, 4 h after i.v. administration, read-out: Radioactivity in A549 tumor): 0.4 ± 0.1 %ID/g
tissue uptake at 0.5 h ([1]; U-87 MG tumor, 30 min after i.v. administration, read-out: Radioactivity in U-87 MG tumor): 7.5 ± 0.8 %ID/g
tissue uptake at 2 h ([1]; U-87 MG tumor, 2 h after i.v. administration, read-out: Radioactivity in U-87 MG tumor): 4.2 ± 1.1 %ID/g
tissue uptake at 4 h ([1]; U-87 MG tumor, 4 h after i.v. administration, read-out: Radioactivity in U-87 MG tumor): 2.9 ± 0.4 %ID/g
tissue uptake at 2 h ([1]; blood, 2 h after i.v. administration, read-out: Radioactivity in blood): 0.3 %ID/g
tissue uptake at 0.5 h ([1]; bone, 30 min after i.v. administration, read-out: Radioactivity in bone): 1.5 ± 0.3 %ID/g
tissue uptake at 2 h ([1]; bone, 2 h after i.v. administration, read-out: Radioactivity in bone): 0.9 ± 0.3 %ID/g
tissue uptake at 4 h ([1]; bone, 4 h after i.v. administration, read-out: Radioactivity in bone): 0.4 %ID/g
tissue uptake at 0.5 h ([1]; brain, 30 min after i.v. administration, read-out: Radioactivity in brain): 0.1 %ID/g
tissue uptake at 0.5 h ([1]; heart, 30 min after i.v. administration, read-out: Radioactivity in heart): 0.6 ± 0.1 %ID/g
tissue uptake at 2 h ([1]; heart, 2 h after i.v. administration, read-out: Radioactivity in heart): 0.2 %ID/g
tissue uptake at 4 h ([1]; heart, 4 h after i.v. administration, read-out: Radioactivity in heart): 0.1 %ID/g
tissue uptake at 0.5 h ([1]; kidneys, 30 min after i.v. administration, read-out: Radioactivity in kidneys): 10.9 ± 2.6 %ID/g
tissue uptake at 2 h ([1]; kidneys, 2 h after i.v. administration, read-out: Radioactivity in kidneys): 2 ± 0.2 %ID/g
tissue uptake at 4 h ([1]; kidneys, 4 h after i.v. administration, read-out: Radioactivity in kidneys): 0.9 ± 0.2 %ID/g
tissue uptake at 0.5 h ([1]; large intestine, 30 min after i.v. administration, read-out: Radioactivity in large intestine): 0.4 ± 0.2 %ID/g
tissue uptake at 2 h ([1]; large intestine, 2 h after i.v. administration, read-out: Radioactivity in large intestine): 5.5 ± 1 %ID/g
tissue uptake at 4 h ([1]; large intestine, 4 h after i.v. administration, read-out: Radioactivity in large intestine): 5.5 ± 1.4 %ID/g
tissue uptake at 0.5 h ([1]; liver, 30 min after i.v. administration, read-out: Radioactivity in liver): 0.9 ± 0.1 %ID/g
tissue uptake at 2 h ([1]; liver, 2 h after i.v. administration, read-out: Radioactivity in liver): 0.5 ± 0.1 %ID/g
tissue uptake at 4 h ([1]; liver, 4 h after i.v. administration, read-out: Radioactivity in liver): 0.3 ± 0.1 %ID/g
tissue uptake at 0.5 h ([1]; lung, 30 min after i.v. administration, read-out: Radioactivity in lung): 2.9 ± 0.5 %ID/g
tissue uptake at 2 h ([1]; lung, 2 h after i.v. administration, read-out: Radioactivity in lung): 1.2 ± 0.3 %ID/g
tissue uptake at 4 h ([1]; lung, 4 h after i.v. administration, read-out: Radioactivity in lung): 0.4 ± 0.1 %ID/g
tissue uptake at 0.5 h ([1]; muscle, 30 min after i.v. administration, read-out: Radioactivity in muscle): 0.7 ± 0.1 %ID/g
tissue uptake at 2 h ([1]; muscle, 2 h after i.v. administration, read-out: Radioactivity in muscle): 0.2 %ID/g
tissue uptake at 4 h ([1]; muscle, 4 h after i.v. administration, read-out: Radioactivity in muscle): 0.1 %ID/g
tissue uptake at 0.5 h ([1]; pancreas, 30 min after i.v. administration, read-out: Radioactivity in pancreas): 0.5 ± 0.1 %ID/g
tissue uptake at 2 h ([1]; pancreas, 2 h after i.v. administration, read-out: Radioactivity in pancreas): 0.2 ± 0.1 %ID/g
tissue uptake at 4 h ([1]; pancreas, 4 h after i.v. administration, read-out: Radioactivity in pancreas): 0.1 %ID/g
tissue uptake at 0.5 h ([1]; small intestine, 30 min after i.v. administration, read-out: Radioactivity in small intestine): 3.6 ± 0.6 %ID/g
tissue uptake at 2 h ([1]; small intestine, 2 h after i.v. administration, read-out: Radioactivity in small intestine): 2.3 ± 1 %ID/g
tissue uptake at 4 h ([1]; small intestine, 4 h after i.v. administration, read-out: Radioactivity in small intestine): 1.6 ± 0.4 %ID/g
tissue uptake at 0.5 h ([1]; spleen, 30 min after i.v. administration, read-out: Radioactivity in spleen): 0.7 ± 0.2 %ID/g
tissue uptake at 2 h ([1]; spleen, 2 h after i.v. administration, read-out: Radioactivity in spleen): 0.3 ± 0.1 %ID/g
tissue uptake at 4 h ([1]; spleen, 4 h after i.v. administration, read-out: Radioactivity in spleen): 0.2 %ID/g
tissue uptake dose at 0.5 h ([1]; stomach, 30 min after i.v. administration): 0.6 ± 0.5 %ID
tissue uptake dose at 2 h ([1]; stomach, 2 h after i.v. administration): 0.2 %ID
tissue uptake dose at 4 h ([1]; stomach, 4 h after i.v. administration): 0.3 ± 0.3 %ID
tissue uptake at 0.5 h ([1]; whole blood, 30 min after i.v. administration, read-out: Radioactivity in blood): 1.1 ± 0.1 %ID/g
tissue uptake at 2 h ([1]; whole blood, 2 h after i.v. administration, read-out: Radioactivity in blood): 0.3 ± 0.1 %ID/g
tissue uptake at 4 h ([1]; whole blood, 4 h after i.v. administration, read-out: Radioactivity in blood): 0.2 ± 0.1 %ID/g
Radioactivity in thyroid [2, 3]: 0.0 ± 0.0 % injected dose
U87/Muscle radioactivity ratio [2, 3]: 7.1 ± 1.8
Radioactivity in thyroid [2, 4]: 0.0 ± 0.0 % injected dose
U87/Blood radioactivity ratio [2, 4]: 22
U87/Muscle radioactivity ratio [2, 4]: 13.9 ± 6.8
Lung-to-blood radioactivity ratio ([2]; 2 h post-administration): 3.7
Accumulation ratio U87/A549 ([2]; 2 h post-administration, co-implanted mice): 5.4
Radioactivity in thyroid [2, 5]: 0.0 ± 0.0 % injected dose
U87/Muscle radioactivity ratio [2, 5]: 10.3 ± 2.5
Compound: N=C(N)NCCC[C@@H]1NC(=O)[C@H]2CSCc3cc(cc(c3)CSC[C@H](C(N)=O)NC(=O)[C@H](CC(=O)O)NC(=O)CNC1=O)CSC[C@H](NC(=O)CNC(=O)[C@H](CO)NC(=O)c1ccc(NC(=O)CNC(=O)[C@H](CO)NC(=O)[C@@H]3CCCN3C(=O)[C@@H]3CCCN3C(=O)[C@@H]3CCCN3C(=O)CCc3cn(CC[C@H](NC(=O)CCNC(=O)c4cccc(I)c4)C(=O)N4CCC[C@H]4C(=O)N4CCC[C@H]4C(=O)N4CCC[C@H]4C(=O)N[C@@H](CO)C(=O)NCC(=O)Nc4ccc(C(=O)N[C@@H](CO)C(=O)NCC(=O)N[C@H]5CSCc6cc7cc(c6)CSC[C@@H](NC(=O)[C@H](CCC(N)=O)NC(=O)[C@@H]6CCCN6C(=O)[C@H](Cc6c[nH]cn6)NC5=O)C(=O)N[C@@H](CCCNC(=N)N)C(=O)NCC(=O)N[C@@H](CC(=O)O)C(=O)N[C@@H](C(N)=O)CSC7)cc4)nn3)cc1)C(=O)N[C@@H](Cc1c[nH]cn1)C(=O)N1CCC[C@H]1C(=O)N[C@@H](CCC(N)=O)C(=O)N2 [[^125I]bcRGDdimer]
Radioactivity in brain [2, 4]: 0.0 ± 0.0 % injected dose per gram of tissue
Radioactivity in brain [2, 5]: 0.0 ± 0.0 % injected dose per gram of tissue
